In patent publication US20080317876A1, “USE OF A MAGNESIUM ISOTOPE FOR TREATING HYPOXIA AND A MEDICAMENT COMPRISING THE SAME” (priority 2007, published 2008):
Converted amounts (≈) assume the structure as drawn.

Assays:
[1] = unmodified C60-fullerene; cited from earlier work
Cationite capacity = assay type: physicochemical
[2] = system: heart muscle tissue (rat myocardium) under hypoxia; assay type: in vivo
Procedure: Same tests were also performed in inhalation hypoxia model specified below (FIG. 14-16).
The following in vivo experimental hypoxia models were employed:
(1) Medicinal hypoxia syndrome A (1-methylnicotineamide (MNA), 10-20 mg/kg i.v. once per 24 hrs); […] (2) Medicinal hypoxia syndrome B (DXR 60-80 mg/kg i.v. once per 24 hrs); (3) The oxygen depleted inhalation model (10-20 day long exposition of rats to the artificial gas mixture to breath with, 12-16% oxygen/84-88% nitrogen, v/v).
Male adult Wistar Albino Glaxo rats (180-220 gms) were used, 3-4 animals per each experimental point.

[3] = system: heart muscle mitochondria membranes; assay: Retention of the drug by heart muscle mitochondria membranes after a single i.v. injection; assay type: in vivo

Row | Compound | solubility [1] [ng/mL] | cationite capacities (Cationite capacity) | protecting the heart muscle tissue from the damaging impact promoted by hypoxia ([2]; hypoxia of any sort, even at extra low doses) | safety of long term multiple administration of extra low doses ([2]; in vivo) | effect in medicinal hypoxic cardiotoxicity cases (DXR, MNA) ([2]; long term multiple administration, extra low doses) | time the drug molecule is retained by heart muscle mitochondria membranes [3]
1 | c12c3c4c5c1c1c6c7c2c2c8c3c3c9c4c4c%10c5c5c1c1c6c6c%11c7c2c2c7c8c3c3c8c9c4c4c9c%10c5c5c1c1c6c6c%11c2c2c7c3c3c8c4c4c9c5c1c1c6c2c3c41 [C60-fullerene] | 1.3e-05 (≈ 1.8e-05 nM) |  |  |  |  | 
2 | fullerene (C60)-2-(butadiene-1-yl)tetra(o-γ-aminobutyryl-o-phtalyl)ferroporphyrin [PMC16] |  | 320-370 meqv/mmol | efficient | totally safe | marked prophylactic and therapeutic effect | not less than a week
